Test results taken from ChEMBL document CHEMBL1208751 (Bioorg Med Chem Lett, 2010).
≈ marks a conversion by molar mass, not a printed value.

Test: Solubility of the compound at pH 6.8
Assay type: physicochemical
Details: buffer

| solubility | SMILES |
| --- | --- |
| < 0.5 µM | CC(C)CC1n2cncc2CN(Cc2ccc(F)cc2)S1(=O)=O (configuration not stated) |
| 500 µM (≈ 192 µg/mL) | C[C@@H](c1ccc(Cl)cc1)N1Cc2cncn2C(CC(C)(C)O)S1(=O)=O (some centres not stated) |
